From patent US20180354909A1, “SUBSTITUTED BENZIMIDAZOLIUM, PYRIDO-IMIDAZOLIUM, OR PYRAZINO-IMIDAZOLIUM COMPOUNDS AS CHEMOTHERAPEUTICS” (The Board of Regents of the University of Texas System, priority 2015, published 2018) come the findings set out here.

Data set [1] concerns Mut6. The data set is described as follows: Cytotox testing (CellTiter-Glo ATP assay) in Mut6 cells. In kind it is cell-based, mouse. The method, boiled down:
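Mouse glioblastoma Mut6 neural stem-like cells were grown in EGF/bFGF/N2/B27 medium and plated at 2,000 cells/well on poly-lysine/laminin. About 3 h later they were treated with compound (5 μM final in the stated case) for 4 days. Viability was read as CellTiter-Glo luminescence in quadruplicate, with EC50s fitted.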
(Cellular ATP, detected with luciferase, serves as a proxy for viable cell number.)

Data set [2] is described as follows: In vitro plasma half-life. In kind it is in vitro ADME. The note with it: mouse, plasma, murine plasma, read-out: Plasma T1/2 (converted). Here is the method: 12M11 (2 μM final concentration) was incubated with murine plasma and saline for 0-1440 minutes. Reactions were quenched with 200 μl (1:2) of methanol containing 0.1% formic acid and 200 ng/ml IS (IS final conc.=100 ng/mL). Samples were vortexed for 15 seconds, incubated at RT for 10 minutes and spun for 5 minutes at 13.2K rpm. Supernatant ([…]) was then transferred to an eppendorf tube and spun in a table top, chilled centrifuge for 5 minutes at 13.2K rpm. Supernatant (800 μL) was transferred to an HPLC vial (w/out insert). Analyzed by Qtrap 3200 mass spectrometer. These methods were used data obtained in the FIGS. 22C and 22F.

The subject of another data set is astrocytes. The data set is described as follows: Cytotox testing (CellTiter-Glo) in astrocytes. In kind it is cell-based. The procedure:
Mut6 tumor cells were cultured in DMEM/F12 media supplemented by EGF (10 ng/mL), basic FGF (10 ng/mL), heparin (4 ug/mL), glucose (total 21 mM), NaHCO3 (113 μg/mL), Hepes (119 μg/mL), glutamine (2 mM), sodium pyruvate (1 mM), N2 supplement (ThermoFisher Gibco 17502-048, 100×, at 100-fold dilution), B27 supplement (ThermoFisher Gibco 12587-010, 50×, at 100-fold dilution), and penicillin/streptomycin (ThermoFisher, final 1%). Cells were maintained in Ultra-low attachment plate (Corning) as sphere-forming cells. For ATP assays and protein/RNA isolation, cells were plated into 96-well plates or 6-well plated that were coated with poly-lysine (Sigma P6407, 10 μg/mL in PBS, 4 hr at 37° C.) and laminin (ThermoFisher 23017015, ˜5 mg/L in PBS, overnight at 37° C.). MEFs and Astrocytes were cultured in DMEM supplemented with 10% FBS and 1% Penicillin/Streptomycin.
2,000 cells were plated into each well of 96-well plates. About 3 hours later, cells were treated by 12M11, at 800-fold dilution (4 mM stock was diluted into 5 μM final concentration). Cells were further incubated for 4 days. CellTiter-Glo assay (Promega) was performed according to manufacturer's instructions, by adding 20 μL of reagent into each well. Luminescence signal was detected by the PolarStar plate reader (BMG Labtech). Experiments were performed in quadruplicate, and results are presented with mean average −/+ standard deviation. EC505 were calculated by GraphPad Prism6 software.

Data set [3] concerns Mut6. The data set is described as follows: Glucose and lactate in culture media of Mut6 cells. In kind it is cell-based, mouse. The note with it: Mut6, 7 hrs incubation. The procedure: Mut6 cells were incubated with 12M11 for 7 hrs, and the collected culture media was measured for glucose, lactate, glutamine, and glutamate (Birsoy, et al., 2014; Lunt and Vander Heiden, 2011). […] Oxygen consumption and extracellular acidification using a XF24 Seahorse analyzer was used to measure cellular oxygen consumption rate (OCR) and extracellular acidification rate (ECAR) (FIG. 8).

Data set [4] deals with oxidative phosphorylation complexes I-V. As to the kind of experiment: Avidin agarose pull-down of Biotin-12M11 interacting proteins from Mut6 cells. In kind it is binding, mouse. The note with it: Mut6 cell lysates. The procedure: To understand the unique selectivity of 12M11 to affect the viability of Mut6 cells, the precise molecular target(s) of 12M11 were determined. A 12M11 biotinylated variant (see Cpd 1.11, FIG. 16C) was generated to attempt to directly pull down interacting proteins. […] Mut6 cells were treated with 12M11, Biot-12M11, or pre-incubated with 12M11 followed by addition of Biot-12M11 (see FIG. 17 for a general schematic protocol). As indicated in the silver stain of a denaturing gel (FIG. 18A) with the pull down reactions, several bands that appear in the Biot-12M11 tract (Lane 2) are substantially diluted or absent in Lane 3 where the cells were pre-incubated with excess 12M11. […] The results from Mass-Spec analysis were as follows: 1) Lysate from Mut6 cells incubated with 12M11 alone yielded no proteins; 2) Lysate from Mut6 cells incubated with Biot-12M11 yielded 8 proteins (Atp5a1, Acaca, Hspa9, Hsp60, Decr1, Sdha, Pcca, and Atp5o; FIG. 19B). Two of the proteins, Acac and Pcca, were discounted as known to nonspecifically bind Biotin (Tong, 2005; Diacovich, et al., 2004; Kalousek, et al., 1980). The remaining 6 proteins all localize to the mitochondrion and 3 of the pulled down proteins are components of the oxidative phosphorylation complexes. […]

Entries after “also recorded” stand apart in the source; their conditions may differ.

Consider `CCc1n(CC(=O)O[C@@H]2C[C@H](C)CC[C@H]2C(C)C)c2ccccc2[n+]1C.[Cl-]` [Compound 12M11], for which the “activity against Mut6 cells” value in the data set with Mut6 [1] (CellTiter-Glo) is reported as “specific nanomolar activity; also recorded: specific toxicity”. Besides, the EC50 with Mut6 [1] (Mus musculus, Mut6 cells, FIG. 1, read-out: potency) is about 100 nM. Also, in the data set on Mut6 [1] (after six hours of exposure), the “cell death on Mut6 cells” value was “irrevocable cell death”. Besides, in data set [2], the half-life at 2 μM is 4 min. Moreover, the “activity against astrocytes” value in the data set with astrocytes is given as “no to minimal effect; also recorded: no activity; also recorded: uniquely resistant”. Further, in the data set with Mut6 [3], the lactate secretion entry is on record as “increased” and the uptake of glucose result is “increased”. For the same compound, the “association with OxyPhos complex proteins (pull-down)” value in data set [4] is recorded as “excludes”.
